Assay results taken from publication PMC10447463, “Data-mining unveils structure–property–activity correlation of viral infectivity enhancing self-assembling peptides” (Nature Communications, 2023).

Tests used:
[1] = test system: HIV-1 infection of TZM-bl cells; test: HIV-1 infectivity enhancement assay, β-galactosidase luminescence; assay type: cell-based; conditions: for Log10 Infection Rel EF-C: log10 of infection relative to EF-C, Figure 7B; for Inf. rel. EF-C: n-fold infection vs virus only, relative to that of EF-C, 1.3 µM peptide
[2] = assay type: physicochemical; conditions: for ThT Cat. / ThT-Fluorescence (categorical): ThT-active if fluorescence at least twice the control
Method in brief: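 Preformed peptide fibrils (1 mg/mL) mixed with 50 µM ThT in PBS, 15 min at RT, fluorescence ex 440/em 488 nm versus PBS blank, triplicates. Zeta potential: peptides at 1 mg/mL in PBS pH 7.4, aged 1 d at RT, diluted in 1 mM KCl, Smoluchowski from electrophoretic mobility.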

Substance	Log10 Infection Rel EF-C [1]	Inf. rel. EF-C [1]	ThT Cat. / ThT-Fluorescence (categorical) [2]	Tht rel to blank (42.1851851851852) ([2]; ThT fluorescence relative to blank, blank = 42.1851851851852)	Tht category (> 1.5 to blank = +) ([2]; category 1/0)
VQIVYK [reference compound]	-1.17	0.07	0 (ThT-inactive (N-Fold <2))	–	–
VLYVGSKT [reference compound]	-1.24	0.06	0 (ThT-inactive (N-Fold <2))	–	–
NSGAITIG-NH2 [reference compound]	-1.26	0.05	0 (ThT-inactive (N-Fold <2))	–	–
RIRIQIC [PS07]	–	–	–	1.32	0 (ThT-inactive (N-Fold <2))
GAITIG-NH2 [reference compound]	-1.35	0.04	0 (ThT-inactive (N-Fold <2))	–	–
RCELARTLKR [reference compound]	-1.06	0.09	0 (ThT-inactive (N-Fold <2))	–	–
IIKIIK [reference compound]	-1.1	0.08	0 (ThT-inactive (N-Fold <2))	–	–
GQTVTK [reference compound]	-1.25	0.06	0 (ThT-inactive (N-Fold <2))	–	–
DFNKF [reference compound]	-1.07	0.08	0 (ThT-inactive (N-Fold <2))	–	–
GNNQQNY [reference compound]	-1.28	0.05	0 (ThT-inactive (N-Fold <2))	–	–
